What follows are compounds tested against T1, HDM2 (Homo sapiens, UniProt Q00987) (assay: HDM2 FRET assay (inhibition of binding of FITC labeled p53-pocket peptide to HDM2)). Settings: Table 18; read-out: FRET IC50.
T1 construct: Thioredoxin (N); made in house; host or cells: E. coli strain BL21(DE3)Rosetta
T1 sequence (Q00987 17-125): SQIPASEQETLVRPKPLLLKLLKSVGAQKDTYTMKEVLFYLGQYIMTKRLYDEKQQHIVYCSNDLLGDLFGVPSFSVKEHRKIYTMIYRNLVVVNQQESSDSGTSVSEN
Procedure, shortened: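 Final: 0.5 nM His-HDM2, 3 nM FITC peptide, 0.25 nM Tb anti-His Ab; PBS, 0.01% BSA, 0.01% Tween-20; 0.1% DMSO.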
`CCC1=CCC(Cn2c(-c3cc(C(C)C)ccn3)nc3nc(-c4noc(=O)[nH]4)nc(N[C@H](C)C4CCC4)c32)CC1` (stereo partly drawn) [Example 18.25, 3-(6-{[(1R)-1-cyclobutylethyl]amino}-7-[(4-ethylcyclohex-3-en-1-yl)methyl]-8-[4-(1-methylethyl)pyridin-2-yl]-7H-purin-2-yl)-1,2,4-oxadiazol-5(4H)-one] was tested, and the IC50 was 44 nM.
In the case of `Cc1cccc(-c2nc3nc(C(=O)O)nc(N[C@H](C)C4CCC4)c3n2C[C@H]2CC[C@@H](C(F)(F)F)CC2)c1` [Example 18.29, 6-{[(1R)-1-cyclobutylethyl]amino}-8-(3-methylphenyl)-7-{[cis-4-(trifluoromethyl)cyclohexyl]methyl}-7H-purine-2-carboxylic acid], the IC50 is reported as 677 nM.
In the case of `CC(C)c1ccnc(-c2nc3nc(-c4noc(=O)[nH]4)nc(N[C@H](C)C4CCC4)c3n2C[C@H]2CC[C@H](C(F)(F)F)CC2)c1` [Example 18.30, 3-(6-{[(1R)-1-cyclobutylethyl]amino}-8-[4-(1-methylethyl)pyridin-2-yl]-7-{[trans-4-(trifluoromethyl)cyclohexyl]methyl}-7H-purin-2-yl)-1,2,4-oxadiazol-5(4H)-one], the IC50 is reported as 13 nM.
In the case of `CC([C@H]1CC[C@H](C)CC1)n1c(N2CCOC3CCCC32)nc2nc(-c3n[nH]c(=O)o3)nc(N[C@H](C)C3CCC3)c21` (stereo partly drawn) [Example 18.44, 5-(6-{ [(1R)-1-cyclobutylethyl]amino}-8-(hexahydrocyclopenta[b] [1,4]oxazin-4(4aH)-yl)-7-[1-(trans-4-methylcyclohexyl)ethyl]-7H-purin-2-yl)-1,3,4-oxadiazol-2(3H)-one], the IC50 is reported as 5.37 nM.
For `CC([C@H]1CC[C@H](C)CC1)n1c(N2CCC[C@H]2C(F)(F)F)nc2nc(-c3noc(=O)[nH]3)nc(-c3cncc(Cl)c3)c21` (stereo partly drawn) [Example 18.49, 3-{6-(5-chloropyridin-3-yl)-7-[1-(trans-4-methylcyclohexyl)ethyl]-8-[(2S)-2-(trifluoromethyl)pyrrolidin-1-yl]-7H-purin-2-yl}-1,2,4-oxadiazol-5(4H)-one], the IC50 was 0.67 nM.

Same assay, conditions: Table 19; read-out: FRET IC50
In the case of `C[C@@H](Nc1nc(-c2noc(=O)[nH]2)nc2nc(Sc3ccccc3)n(C[C@H]3CC[C@H](C)CC3)c12)C1CCC1` [Example 19.1, 3-[6-{[(1R)-1-cyclobutylethyl]amino}-7-[(trans-4-methylcyclohexyl)methyl]-8-(phenylsulfanyl)-7H-purin-2-yl]-1,2,4-oxadiazol-5(4H)-one], the IC50 is reported as 0.763 nM.
For `C[C@@H](Nc1nc(-c2noc(=O)[nH]2)nc2nc([S+]([O-])c3ccccc3)n(C[C@H]3CC[C@H](C)CC3)c12)C1CCC1` (stereo partly drawn) [Example 19.2, 3-[6-{[(1R)-1-cyclobutylethyl]amino}-7-[(trans-4-methylcyclohexyl)methyl]-8-(phenylsulfinyl)-7H-purin-2-yl]-1,2,4-oxadiazol-5(4H)-one], the IC50 was 1.77 nM.
`C[C@@H](Nc1nc(-c2noc(=O)[nH]2)nc2nc(S(=O)(=O)c3ccccc3)n(C[C@H]3CC[C@H](C)CC3)c12)C1CCC1` [Example 19.3, 3-[6-{[(1R)-1-cyclobutylethyl]amino}-7-[(trans-4-methylcyclohexyl)methyl]-8-(phenylsulfonyl)-7H-purin-2-yl]-1,2,4-oxadiazol-5(4H)-one] gave an IC50 of 0.943 nM.
Work on `C[C@H]1CC[C@H](Cn2c(SC3CCCC3)nc3nc(-c4n[nH]c(=O)o4)nc(-c4cncc(Cl)c4)c32)CC1` [Example 19.4, 5-{6-(5-chloropyridin-3-yl)-8-(cyclopentylsulfanyl)-7-[(trans-4-methylcyclohexyl)methyl]-7H-purin-2-yl}-1,3,4-oxadiazol-2(3H)-one] yielded an IC50 of 3.05 nM.
Work on `C[C@H]1CC[C@H](Cn2c(S(=O)(=O)C3CCCC3)nc3nc(-c4n[nH]c(=O)o4)nc(-c4cncc(Cl)c4)c32)CC1` [Example 19.5, 5-{6-(5-chloropyridin-3-yl)-8-(cyclopentylsulfonyl)-7-[(trans-4-methylcyclohexyl)methyl]-7H-purin-2-yl}-1,3,4-oxadiazol-2(3H)-one] yielded an IC50 of 5.83 nM.

Source: patent EP2951180B1, “2,6,7,8 SUBSTITUTED PURINES AS HDM2 INHIBITORS” (Merck Sharp & Dohme Corp., priority 2013, dated 2014)
